Test results as given in patent US20260021092A1, “STRUCTURE-BASED DESIGN OF A NOVEL CLASS OF DRUGS FOR NEURODEGENERATIVE DISEASE” (The Regents of the University of California, priority 2022, published 2026).

Assays:
[1] = Brain penetration in mice (LC-MS/MRM of plasma and brain); assay type: in vivo, C57BL/6J mice; settings: 0.5 mg/kg tail vein injection, 1 hour after dosing, range of n=3; for concentration at 1 h: C57BL/6J, mouse, plasma, intravenous
Description: The compounds were administered by tail vein injection at a dose of 0.5 mg/kg of body weight to C57BL/6J mice (n=3 for each compound). […] To detect and quantify the drugs we used a sensitive, selective, and specific liquid chromatographic/tandem mass spectrometric multiple reaction monitoring (LC-MS/MRM) assay. The sample extraction protocol for plasma and brain was optimized with spiking experiments in which the authentic compounds were added to plasma and brain from drug-naive mice. […] Blood was collected by cardiac puncture and plasma was recovered as the supernatant after centrifugation (3000×g, 10 m) and stored frozen. Brains were collected by standard dissection and immediately frozen. To measure the average drug concentrations across the entire brains each left hemisphere (average wet weight 250 mg) was processed. The samples were spiked with the internal standard (IS, CNS-11F, 15 pmol in 15 μL of acetonitrile) and homogenized with a probe sonicator (Kontes microsonic cell disrupter, 30 sec) after the addition of acetonitrile/water (4:1, v/v, 2500 μL). The homogenates were divided evenly into three polypropylene microcentrifuge tubes (met) for triplicate measurements of each sample. Following centrifugation (16,100g, 5 min), the supernatants were transferred to clean mets and dried in a vacuum centrifuge. The pellets were treated with acetonitrile (25 μL) with vigorous mixing, followed by water (25 μL) with more vigorous mixing, followed by more water (50 μL) for a total volume of 100 μL. The samples were mixed again, centrifuged (16,100g, 5 min) and the supernatants were transferred to HPLC injector vials. […] These samples were processed as described above. Plasma samples (50 μL, in duplicate for each mouse) were spiked with the internal standard (IS, CNS-11F, 5 pmol in 5 μL of acetonitrile), and vigorously mixed after the addition of acetonitrile (500 μL). Following centrifugation (16,100g, 5 min), the supernatants were transferred to clean mcts and dried in a vacuum centrifuge. […] The effluent from the column was directed to an electrospray ion source (Agilent Jet Stream) connected to a triple quadrupole mass spectrometer (Agilent 6460) operating in the positive ion tandem mass spectrometric multiple reaction monitoring (MRM) mode in which the intensity of the transition of preselected parent ions to preselected fragment ions was recorded after signal optimization (collision energy, fragmentor voltage and collision cell accelerator voltage) with instrument manufacturer-supplied software (Mass Hunter). […] Peak areas were integrated and recorded, and a curve was constructed from the data obtained from the standards in which the ratio of drug peak area/IS peak area was plotted against the amount of drug in each sample. […]

[2] = target: T1, alpha-synuclein aggregates (Homo sapiens, UniProt P37840); test: Alpha-synuclein aggregation in DDP1 C. elegans; assay type: in vivo; settings: for soluble versus insoluble alpha-synuclein in worm homogenate by Western blot: 100 μM on plates; for number of alpha-synuclein aggregates in the head region: 100 μM on plates from L1, day 6 of adulthood
T1 construct: host or cells: transgenic C. elegans strain DDP1 (unc-54 promoter)
Text: The DDP1 C. elegans strain overexpresses alpha-synuclein fused with yellow fluorescent protein (YFP) and cyan fluorescent protein (CFP)^22,23. FRET-positive fluorescent alpha-synuclein aggregates can then be visualized and quantified in the adult worms. […] PBS was used as a vehicle control. At day 6 of adulthood, the worms were visualized, and the number of aggregates were quantified by fluorescent microscopy. […] Treated worms were also homogenized for protein analysis by Western blot. Homogenate for each experimental condition was separated into insoluble pellet fractions (P) and soluble supernatant (S) fractions. For untreated worm homogenate, the majority of alpha-synuclein is found in the insoluble pellet.
For C. elegans experiments, the same protocol was used, except following the treatment period worms were harvested, flash frozen, then homogenized for protein extraction. The membrane was washed with TBST overnight before repeating the Western blot analysis for beta-actin (primary antibody anti-beta-actin (C4) (Santa Cruz Biotechnology, cat #sc-47778, lot #J1119; 1:500 dilution in 5% milk/TBST); horseradish peroxidase-conjugated secondary antibody (goat polyclonal anti-mouse IgG (Abcam; cat #ab205719, lot #GR3271082-2); 1:5000 dilution in 5% milk/TBST).
The DDP1 (uonExl [unc-54::αSyn::CFP+unc-54::αSyn::YFP(Venus)]) strain was acquired from the Caenorhabditis Genetics Center (CGC) and used for experiments. C. elegans were grown and maintained using standard conditions. Worms were synchronized using hypochlorite bleaching, hatched ovemight in M9 media (5 g/l NaCl, 6 g/l Na2HPO4, 3 g/l KH2PO4, […]) at 17° C., then cultured on plates with nematode growth medium (NGI; 17 g/l agar, 2.5 g/l peptone, 3 g/l NaCl 1 mM CaCl2, 1 mM MgSO4, 25 mM KH2PO4 pH 6, 5 μg/ml cholesterol) seeded with OP50 E. coli. Strains were maintained at 17° C. […] Treatment plates were then seeded with heat treated OP50 (30 min at 65° C.), according to the “NGM dead” method as previously published^36. Synchronized L1 worms were then added to the treatment plates and grown for 7 days. PBS was used as a control condition. 75 μM FUDR was added on the third day of growth. For imaging, worms were mounted onto 5% agar pads on glass slides, immobilized with 1% NaN3 solution, and imaged by fluorescent microscopy (GFP channel) using a ZEISS Axio Observer D1 fluorescence microscope. Alpha-synuclein aggregates in the head region were quantified.

[3] = target: T2, MSA brain-derived alpha-synuclein fibrils (Homo sapiens, UniProt P37840); test: EM quantification of MSA brain-derived alpha-synuclein fibrils; assay type: biochemical; settings: incubated for 3 days, compared to control
T2 construct: Extraction of sarkosyl-insoluble alpha-synuclein fibrils from neuropathologically confirmed brain samples of patients diagnosed with MSA; from tissue; host or cells: post-mortem MSA patient brain
Description: Post-mortem alpha-synuclein fibrils were extracted and purified from the brain of a patient with MSA. The presence of fibrils in the extract was confirmed by electron microscopy (FIG. 3a). […] As with the recombinant fibrils, we next aimed to quantitatively assess brain-derived fibril disaggregation by EM. Compounds were incubated with MSA fibrils for 3 days, and fibrils were quantified by EM daily, with 10-15 images taken per experimental replicate.
For all transmission electron microscopy (TEM), 6 μL of sample were added onto 400 mesh Formvar Carbon film copper mesh grids (Electron Microscopy Sciences), then incubated for four minutes. 6 μL of 2% uranyl acetate solution was then used to stain the grids. After 2 minutes, excess solution was blotted off and grids were left to dry for a minimum of 30 minutes. TEM images were taken on a Tecnai 12 transmission electron microscope. For quantitation of fibrils, n=20 TEM images were taken per experimental condition from random points throughout the grid. Fibril counts were manually quantified per image in a blinded fashion.
Compounds were incubated quiescently with fibril samples (both recombinant and brain-derived) for 72 hours at 37° C. […]

Structure (SMILES) | concentration in brain tissue [1] | concentration at 1 h [1] [nM] | soluble versus insoluble alpha-synuclein in worm homogenate by Western blot [2] | number of alpha-synuclein aggregates in the head region [2] | average number of imaged MSA fibrils [3]
Cc1cc(C)c(NC(=O)Cn2nc3c4c(cccc4c2=O)-c2ccccc2-3)c(C)c1 [CNS-11, N-mesityl-2-(3-oxoindeno[1,2,3-de]phthalazin-2(3H)-yl)acetamide] | 6.9-21.5 ng/g of brain | 5 to 28.4 | solubilization of the alpha-synuclein | reduction of total aggregates | reduction in average number of imaged fibrils
Cc1cccc(C)c1NC(=O)Cn1nc(Cc2ccccc2)c2ccccc2c1=O [CNS-11g, 2-(4-benzyl-1-oxophthalazin-2-yl)-N-(2,6-dimethylphenyl)acetamide] | 4.2-26.1 ng/g of brain | 10.4 to 58.8 | solubilization of the alpha-synuclein | reduction of total aggregates | reduction in average number of imaged fibrils
